The text below walks through data of patent publication US6825209B2, “Compounds having unique CB1 receptor binding selectivity and methods for their production and use” (Research Triangle Institute, priority 2002, dated 2004).

Structures are written as SMILES. Like-named read-outs stand apart in the source and are kept apart here.

The target of experiment [1] is T1, human CB2 receptor (Homo sapiens, UniProt P34972).
T1 construct: expressed in transfected cells; host or cells: CHO-K1
Nature of the experiment: Displacement of 3H-CP55,940 in human CB2 receptor-transfected cells (CHO-K1). Format: binding. The note with it: radioligand 3H-CP55940, Tables 6 and 7. Put shortly:
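CB2 receptor expressed in CHO-K1 cells; [3H]-CP55,940 displacement with incubation and separation as for rat brain membranes.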
On the technique in general: In a radioligand displacement assay an active substance lowers the binding of a labelled ligand.

Experiment [2] deals with T2, G-protein-linked cannabinoid receptors (Rattus norvegicus, UniProt P20272).
T2 construct: tissue Charles River or Pel-Freez Biologicals; host or cells: whole rat brain crude membrane homogenate
T2 sequence (P20272 whole entry): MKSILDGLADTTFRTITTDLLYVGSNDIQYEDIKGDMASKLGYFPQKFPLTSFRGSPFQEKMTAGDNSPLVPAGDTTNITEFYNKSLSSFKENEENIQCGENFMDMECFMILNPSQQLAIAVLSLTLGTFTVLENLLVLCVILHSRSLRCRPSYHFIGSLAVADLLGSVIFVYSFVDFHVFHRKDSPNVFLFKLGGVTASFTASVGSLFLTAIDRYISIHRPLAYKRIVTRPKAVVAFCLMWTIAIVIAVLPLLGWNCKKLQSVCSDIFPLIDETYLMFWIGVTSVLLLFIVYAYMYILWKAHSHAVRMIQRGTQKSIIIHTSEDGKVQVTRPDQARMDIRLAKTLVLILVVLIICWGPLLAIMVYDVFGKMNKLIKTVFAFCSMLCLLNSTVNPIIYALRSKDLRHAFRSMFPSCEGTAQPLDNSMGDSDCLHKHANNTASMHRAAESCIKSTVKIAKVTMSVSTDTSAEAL
Nature of the experiment: GTP-γ-[35S] binding in whole rat brain. In kind it is biochemical. Conditions: for Emax: read-out: Emax, GTP-γ-[35S] in Whole Rat Brain; for EC50: inverse agonist/antagonist activity.

Experiment [3] deals with T3, human CB1 receptor (Homo sapiens, UniProt P21554).
T3 construct: expressed in transfected cells; host or cells: HEK-293
T3 sequence (P21554 whole entry): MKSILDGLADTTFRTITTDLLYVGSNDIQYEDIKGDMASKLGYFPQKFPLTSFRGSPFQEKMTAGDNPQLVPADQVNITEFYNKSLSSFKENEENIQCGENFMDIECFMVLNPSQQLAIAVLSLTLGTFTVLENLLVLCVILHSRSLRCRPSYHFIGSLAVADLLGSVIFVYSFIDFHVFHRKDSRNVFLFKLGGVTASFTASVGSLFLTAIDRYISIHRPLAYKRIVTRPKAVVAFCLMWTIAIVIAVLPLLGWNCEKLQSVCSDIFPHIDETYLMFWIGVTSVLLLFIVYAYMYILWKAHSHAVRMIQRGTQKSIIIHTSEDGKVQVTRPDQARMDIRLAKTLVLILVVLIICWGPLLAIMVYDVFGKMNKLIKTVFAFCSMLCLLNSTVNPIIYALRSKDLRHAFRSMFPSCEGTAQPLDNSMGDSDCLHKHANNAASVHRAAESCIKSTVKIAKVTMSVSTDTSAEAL
Kind of experiment: Radioligand displacement in human CB1 receptor-transfected cells (HEK-293). In kind it is binding. The gist of the method: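 Radioligand displacement was run on HEK-293 cells expressing human CB1, with incubation and separation as for rat brain membranes. IC50 values came from one- or two-site nonlinear regression and were converted to Ki by Cheng-Prusoff.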

Setting [4] is: read-out: Ki, displacement of 3H-CP55940, human CB2 transfected cells.
Where [5] appears, read: whole rat brain membranes, effects reported as percent change from basal.
The mark [6] stands for this setting: whole rat brain membranes, read-out: EC50, GTP-γ-[35S] in Whole Rat Brain.
Where [7] appears, read: displacement of 3H-CP55940, human CB1 transfected cells, radioligand 3H-CP55940, Table 3.
[8] abbreviates: displacement of 3H-SR141716A, human CB1 transfected cells, radioligand 3H-SR141716A, Table 3.
[9] abbreviates: displacement of 3H-WIN55212-2, human CB1 transfected cells, radioligand 3H-WIN55212-2, Table 3.
Where [10] appears, read: human CB1 transfected cells, radioligand 3H-CP55940, Table 3.
[11] abbreviates: human CB1 transfected cells, radioligand 3H-SR141716A, Table 3.
Where [12] appears, read: human CB1 transfected cells, radioligand 3H-WIN55212-2, Table 3.

T1 sequence (P34972 whole entry): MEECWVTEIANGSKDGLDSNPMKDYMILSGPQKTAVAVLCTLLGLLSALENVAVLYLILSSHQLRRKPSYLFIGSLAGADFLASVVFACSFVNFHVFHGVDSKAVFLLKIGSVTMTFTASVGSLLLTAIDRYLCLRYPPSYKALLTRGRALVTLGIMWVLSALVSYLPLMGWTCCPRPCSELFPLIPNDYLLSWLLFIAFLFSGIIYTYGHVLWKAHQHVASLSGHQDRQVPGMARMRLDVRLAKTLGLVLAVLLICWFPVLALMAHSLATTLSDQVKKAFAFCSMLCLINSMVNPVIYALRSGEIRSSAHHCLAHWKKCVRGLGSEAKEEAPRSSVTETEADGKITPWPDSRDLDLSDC

For the compound `Cc1c(C(=O)NN2CCOCC2)nn(-c2ccc(Cl)cc2Cl)c1-c1ccc(Cl)cc1` [MF9725-33D], the “Max. Disp. %, 3H-CP55940” value in experiment [1] (human CB2 transfected cells) was 54.5%. For the same compound, the inhibitory constant (Ki) in experiment [1] (setting [4]) is 2.41 µM. Also, the Emax in experiment [2] (setting [5]) is -76.3%. Moreover, in experiment [2] (setting [6]), the EC50 amounted to 38.9 µM.

As to `CCCCNC(=O)c1nn(-c2ccc(Cl)cc2Cl)c(-c2ccc(Cl)cc2)c1C` [MF9725-64-17], the entries for the “Max. Disp. %, 3H-CP55940” value in experiment [1] (human CB2 transfected cells) and in experiment [3] (setting [10]) were 75.6% and 90.2%, respectively. The inhibition constant (Ki) in experiment [1] (setting [4]) was 1.6 µM; in experiment [3] (setting [7]), 0.028 µM; in experiment [3] (setting [8]), 0.00479 µM; in experiment [3] (setting [9]), 0.0298 µM. The “Max. Disp. %, 3H-SR141716A” value in experiment [3] (setting [11]) amounted to 97.4%. Further, the “Max. Disp. %, 3H-WIN55212-2” value in experiment [3] (setting [12]) came to 93.2%. The Emax in experiment [2] (setting [5]) is -38.5%. In addition, in experiment [2] (setting [6]), the EC50 amounted to 8.54 µM.

Take `Cc1c(C(=O)NC(C)C)nn(-c2ccc(Cl)cc2Cl)c1-c1ccc(Cl)cc1` [MF9725-65-11]: the “Max. Disp. %, 3H-CP55940” value in experiment [1] (human CB2 transfected cells) amounted to 68.3%; in experiment [3] (setting [10]), 85.4%. Moreover, the Ki was 1.75 µM in experiment [1] (setting [4]), 0.091 µM in experiment [3] (setting [7]), 0.0144 µM in experiment [3] (setting [8]) and 0.692 µM in experiment [3] (setting [9]). Besides, the “Max. Disp. %, 3H-SR141716A” value in experiment [3] (setting [11]) is 100%. In experiment [3] (setting [12]), the “Max. Disp. %, 3H-WIN55212-2” value was 93.6%. Moreover, the Emax in experiment [2] (setting [5]) was -46.4%. Also, the EC50 in experiment [2] (setting [6]) is 16 µM.

For `Cc1c(C(=O)NC2CCCCC2)nn(-c2ccc(Cl)cc2Cl)c1-c1ccc(Cl)cc1` [MF9725-66-11], the “Max. Disp. %, 3H-CP55940” value amounted to 84.5% in experiment [1] (human CB2 transfected cells) and 92.3% in experiment [3] (setting [10]). The inhibition constant Ki in experiment [1] (setting [4]) amounted to 0.228 µM; in experiment [3] (setting [7]) it was 0.00706 µM; in experiment [3] (setting [8]), 0.00102 µM; in experiment [3] (setting [9]) it was 0.00536 µM. In experiment [3] (setting [11]), the “Max. Disp. %, 3H-SR141716A” value amounted to 99.9%. For the same compound, in experiment [3] (setting [12]), the “Max. Disp. %, 3H-WIN55212-2” value is listed as 96.8%. Moreover, the Emax in experiment [2] (setting [5]) is -22.1%. Also, the EC50 in experiment [2] (setting [6]) was determined as 26 µM.

In the case of `Cc1c(C(=O)NCC(C)C)nn(-c2ccc(Cl)cc2Cl)c1-c1ccc(Cl)cc1` [MF9725-68-10], the “Max. Disp. %, 3H-CP55940” value in experiment [1] (human CB2 transfected cells) is 80.0%; in experiment [3] (setting [10]), 70.1%. Further, the inhibitory constant (Ki) was determined as 0.704 µM in experiment [1] (setting [4]), 0.0936 µM in experiment [3] (setting [7]), 0.0143 µM in experiment [3] (setting [8]) and 0.127 µM in experiment [3] (setting [9]). Besides, the “Max. Disp. %, 3H-SR141716A” value in experiment [3] (setting [11]) stood at 99.5%. In addition, in experiment [3] (setting [12]), the “Max. Disp. %, 3H-WIN55212-2” value turned out to be 100%. For the same compound, the Emax in experiment [2] (setting [5]) was -11%. Also, in experiment [2] (setting [6]), the EC50 is 7.54 µM.

On to `CCCCCCNC(=O)c1nn(-c2ccc(Cl)cc2Cl)c(-c2ccc(Cl)cc2)c1C` [MF9725-132-25], for which the “Max. Disp. %, 3H-CP55940” value was found to be 66.9% in experiment [1] (human CB2 transfected cells) and 85.6% in experiment [3] (setting [10]). Also, the Ki in experiment [1] (setting [4]) worked out at 6.87 µM; in experiment [3] (setting [7]) it was 0.124 µM; in experiment [3] (setting [8]), 0.0235 µM; in experiment [3] (setting [9]), 0.0854 µM. For the same compound, the “Max. Disp. %, 3H-SR141716A” value in experiment [3] (setting [11]) amounted to 75.4%. The “Max. Disp. %, 3H-WIN55212-2” value in experiment [3] (setting [12]) is 52.7%. In experiment [2] (setting [5]), the Emax was -13%. In addition, in experiment [2] (setting [6]), the concentration giving a half-maximal response (EC50) amounted to 29.4 µM.

For the compound `CCCCCCCNC(=O)c1nn(-c2ccc(Cl)cc2Cl)c(-c2ccc(Cl)cc2)c1C` [MF9725-133-25], the inhibition constant Ki in experiment [1] (Ki, displacement of 3H-CP55940, human CB2 transfected cells) was determined as 4.03 µM; in experiment [3] (displacement of 3H-CP55940), 0.0291 µM; in experiment [3] (displacement of 3H-SR141716A), 0.0093 µM; in experiment [3] (displacement of 3H-WIN55212-2), 0.393 µM. Moreover, the “Max. Disp. %, 3H-CP55940” value in experiment [1] (human CB2 transfected cells) is given as 47.8%; in experiment [3] it was 85.3%. For the same compound, the “Max. Disp. %, 3H-SR141716A” value in experiment [3] is 67.9%. For the same compound, the “Max. Disp. %, 3H-WIN55212-2” value in experiment [3] amounted to 53.4%. In experiment [2] (EC50, GTP-γ-[35S] in Whole Rat Brain, whole rat brain membranes), this compound came in with a concentration giving a half-maximal response (EC50) of 213 µM. Besides, in experiment [2], the Emax was -20%.

One may read the Ki as the dissociation constant of the complex between target and ligand, obtained from inhibition or displacement. The Emax is the maximal effect, on the per cent scale that the assay sets. As usually defined, the EC50 is the concentration that produces a half-maximal response.
